Data: US12331018B2, “Pyrrolidine orexin receptor agonists” (Merck Sharp & Dohme LLC, priority 2019, dated 2025)
Where two headings read alike, the source gives them in different places.

Biological target: T1, human OX2R (Homo sapiens, UniProt O43614)
T1 construct: expressed in transfected cells; host or cells: CHO (Chinese hamster ovary) cells, grown under G418 selection
T1 sequence (O43614 1-444): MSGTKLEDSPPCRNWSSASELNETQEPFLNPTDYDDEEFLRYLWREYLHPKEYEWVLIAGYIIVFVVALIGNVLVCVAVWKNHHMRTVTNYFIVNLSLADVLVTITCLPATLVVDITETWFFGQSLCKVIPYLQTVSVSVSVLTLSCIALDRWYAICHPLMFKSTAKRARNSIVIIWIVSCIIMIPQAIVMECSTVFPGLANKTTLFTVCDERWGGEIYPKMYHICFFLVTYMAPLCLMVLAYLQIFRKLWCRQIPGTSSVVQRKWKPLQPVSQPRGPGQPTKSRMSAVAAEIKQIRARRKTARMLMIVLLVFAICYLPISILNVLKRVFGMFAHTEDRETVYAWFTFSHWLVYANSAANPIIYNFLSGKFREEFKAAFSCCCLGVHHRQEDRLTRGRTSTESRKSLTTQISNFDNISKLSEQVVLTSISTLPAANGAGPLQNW
Test: IPOne (IP-1 accumulation) assay in CHO cells expressing human OX2R
Type: cell-based
Details: for Emax, % of reference agonist: OX2R, percentage of sample raw value/mean max effect (reference compound at 1 uM with 100% activity)
Excerpt: The utility of the compounds in accordance with the present invention as orexin receptor OX1R and/or OX2R agonists may be readily determined without undue experimentation by methodology well known in the art. Both the OX1R and/or OX2R G-coupled protein receptors (GPCRs) couple through the Gaq signaling pathway, which ultimately promotes calcium mobilization via inositol triphosphate (IP3) production. The half-life of IP-3 is relatively short, being rapidly metabolized to inositol monophosphate (IP-1), which can be readily detected using a commercially available assay kit (IP-One; Cisbio; cat #621PAPEC) coupled with a cell line expressing the target receptor(s) of interest. The utility of the compounds in accordance with the present invention as orexin receptor OX1R and/or OX2R agonists may be determined utilizing this assay.
In a typical experiment, the OX1 and OX2 receptor agonist activity is determined in accordance with the following general experimental method. Chinese hamster ovary (CHO) cells expressing human OX1R and/or the human OX2R were grown in Iscove's modified DMEM containing glutaMAX™, 1% G418, 100 U/mL penicillin, 100 μg/mL streptomycin and 10% heat-inactivated qualified fetal bovine serum (FBS). The OX2R cells were seeded at 10,000 cells/well/50 μL and the OX1R cells were seeded at 20,000 cells/well/50 μL into 384-well white tissue culture plates (Greiner; cat #781080). All cell/media reagents were from GIBCO-Invitrogen Corp. The seeded cell plate(s) were incubated at 37° C. with 5% CO2 and 85% humidity for 20-24 hours. On the day of the assay, assay-ready compound plates were prepared using an acoustic liquid handler (ECHO; Labcyte), which dispensed sufficient volume of test compound stock (10 mM in DMSO) or 100% DMSO to prepare 10 point, ½-log dilutions in a final volume of 202.5 nL/well in all test wells of a 384-well diamond plate (Labcyte). Following completion of assay-ready plates, importantly, the next three steps were performed with minimal delay: 1) 20 μl of 1× stimulation buffer was added to the compound plate using a Multidrop Combi (small cassette, Thermo Fisher Scientific cat #24073290); 2) culture medium was removed from the cell plate using the Bluewasher plate washer (gentle spin; BlueCatBio); 3) 14 μl of compound/stimulation buffer mixture was added to the cell plate using a Bravo liquid handler (Agilent) prior to incubating cell plates at 37° C. with 5% CO2 and 85% humidity for 1 or 2 hours (OX1R and OX2R, respectively). During this incubation, IP-one detection reagents were prepared (38:1:1 lysis buffer:D2:AB-cryptate reagents). Six μL of mixed detection reagents were added to the cell plate using a Multidrop Combi (small cassette, Thermo Fisher Scientific cat #24073290) and incubated 60 minutes at room temperature in the dark. Fluorescence signal was detected using an Envision plate reader (Perkin Elmer) [LANCE/DELFIA Dual Enh (Em: APC 665; Ex: Cy5 620)].
For each compound, data were fit to a four parameter logistic fit (ActivityBase software) and the EC50 was reported as the inflection point of the resulting curve. Percent effect for each test compound was determined as the percentage of sample raw value/mean max effect, where the mean max effect was derived from the mean raw value of 32 control wells per assay plate (using Orexin A (cat #003-30) at 1 μM for human OX1R and a reference compound at 1 uM with 100% activity previously established by comparison to Orexin A for human OX2R). The intrinsic orexin receptor agonist activity of a compound which may be used in the present invention may be determined by these assays.

[1] = CHO cells expressing human OX2R, IP-One assay, 2 hours incubation, four parameter logistic fit, read-out: OX2R Potency, EC50

Row | SMILES | EC50 [1] [nM] | Emax, % of reference agonist [%] | OX2R Potency, EC50 (nM) (CHO cells expressing human OX2R, IP-One assay, 2 hours incubation, four parameter logistic fit) | EC50 [nM]
1 | CS(=O)(=O)N[C@H]1CCN(C(=O)NCC2CCC2)[C@H]1CO[C@H]1CC[C@@H](c2ccccc2)CC1 (relative stereo) [Example 21, (CIS)-N-(cyclobutylmethyl)-3-(methylsulfonamido)-2-((((CIS)-4-phenylcyclohexyl)oxy)-methyl)pyrrolidine-1-carboxamide] | 5.65 | 103.2 |  | 
2 | CS(=O)(=O)N[C@H]1CCN(C(=O)OCC(F)F)[C@H]1CO[C@H]1CC[C@@H](c2ccccc2)CC1 (relative stereo) [Example 23, 2,2-difluoroethyl (CIS)-3-(methylsulfonamido)-2-((((CIS)-4-phenylcyclohexyl)oxy)methyl)-pyrrolidine-1-carboxylate] | 59.6 | 101.3 |  | 
3 | CS(=O)(=O)N[C@H]1CCN(C(=O)C2CC2)C1COC1CCC(c2ccccc2)CC1 (single isomer, unassigned) [Example 27] | 48.7 | 100.2 |  | 
4 | CS(=O)(=O)N[C@H]1CCN(C(=O)OCC(F)F)[C@H]1CO[C@H]1CC[C@@H](c2ccccc2)CC1 [Example 12, 2,2-difluoroethyl (2R,3S)-3-(methylsulfonamido)-2-((((CIS)-4-phenylcyclohexyl)oxy)methyl) pyrrolidine-1-carboxylate] | 81 | 101.1 |  | 
5 | CCNC(=O)N1CC[C@H](NS(C)(=O)=O)[C@@H]1COC1CCC(C(C)C)CC1 (stereo partly drawn) [Example 28, (2R,3S)—N-ethyl-2-(((4-isopropylcyclohexyl)oxy)methyl)-3-(methylsulfonamido)pyrrolidine-1-carboxamide] |  | 99.8 |  | 57.8
6 | CC(C)C1CCC(OC[C@H]2[C@@H](NS(C)(=O)=O)CCN2C(=O)C2CC2)CC1 (stereo partly drawn) [Example 30, N-((2R,3S)-1-(cyclopropanecarbonyl)-2-(((4-isopropylcyclohexyl)oxy)methyl)pyrrolidin-3-yl)methanesulfonamide] | 433 | 100.6 |  | 

Further lines, with some results ahead:

Row | EC50 [1] [nM] | Emax, % of reference agonist [%] | OX2R Potency, EC50 (nM) (CHO cells expressing human OX2R, IP-One assay, 2 hours incubation, four parameter logistic fit) | SMILES | EC50 [nM]
7 | 250 | 99.6 |  | CS(=O)(=O)N[C@H]1CCN(C(=O)NC2CC2)[C@H]1CO[C@H]1CC[C@@H](c2ccccc2)CC1 (relative stereo) [Example 22, (CIS)-N-cyclopropyl-3-(methylsulfonamido)-2-((((CIS)-4-phenylcyclohexyl)oxy)methyl)pyrrolidine-1-carboxamide] | 
8 | 493 | 100.2 |  | CS(=O)(=O)N[C@H]1CCN(C(=O)OCC(F)(F)F)[C@H]1CO[C@H]1CC[C@@H](c2ccccc2)CC1 (relative stereo) [Example 24, 2,2,2-trifluoroethyl (CIS)-3-(methylsulfonamido)-2-((((CIS)-4-phenylcyclohexyl)oxy)methyl)pyrrolidine-1-carboxylate] | 
9 | 361 | 103.3 |  | CS(=O)(=O)N[C@H]1CCN(C(=O)CO)[C@H]1CO[C@H]1CC[C@@H](c2ccccc2)CC1 (relative stereo) [Example 25, N-((CIS)-1-(2-hydroxyacetyl)-2-((((CIS)-4-phenylcyclohexyl)oxy)methyl)pyrrolidin-3-yl)methanesulfonamide] | 
10 |  | 17.1 | INACTIVE | CS(=O)(=O)N[C@H]1CCN(C(=O)C2CC2)C1COC1CCC(c2ccccc2)CC1 (single isomer, unassigned) [Example 26] | 
11 | 358 | 99.0 |  | COC(=O)N1CCC(NS(C)(=O)=O)[C@@H]1COC1CCC(C(C)C)CC1 (stereo in doubt) [Example 29, methyl (2R,3R)-2-(((4-isopropylcyclohexyl)oxy)methyl)-3-(methylsulfonamido)pyrrolidine-1-carboxylate] | 
12 | 115 | 100.2 |  | COC(=O)N1CC[C@H](NS(C)(=O)=O)[C@@H]1CO[C@H]1CC[C@@H](c2ccccc2)CC1 [Example 11, methyl (2R,3S)-3-(methylsulfonamido)-2-((((CIS)-4-phenylcyclohexyl)oxy)methyl) pyrrolidine-1-carboxylate] | 
